Data published in PubChem BioAssay AID179 (DTP/NCI, 2004).
“And” between values parts separate entries of the source, which are not always exact repeats. Equal values may be shown once. The source made the active and inactive calls.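 The calls were made as follows: active = compounds giving half or more protection of infected cells from virus-caused growth loss, again on retest; inactive = the rest.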

System: CEM cells HIV-1 protection, formazan growth assay
Assay: NCI AIDS Antiviral Assay
Conditions: for IC50: measured here: growth of uninfected CEM cells
Outline: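 Protection of CEM cells against HIV-1 was scored from cell growth (soluble formazan) across five concentrations, with parallel uninfected cells. Lack of protection may reflect toxicity.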

Row | Structure (SMILES) | EC50 [µM] | IC50 | outcome
1 | CCn1c2ccccc2c2c(-c3ccccc3)cc3c(c21)C(=O)N(c1ccccc1)C3=O | > 6.61 | > 6.61 µM | –
2 | O=C(CCN1CCN(CCC(=O)c2ccccc2)CC1)c1ccccc1 | > 200 | 9.12 µM | –
3 | O=C1OC(CCCN2CCCCC2)(c2ccccc2)CC12CCCC2 (stereo unspecified) | > 200 | 191 µM | –
4 | c1ccc(N=C2SC3=NCCN3C2=Nc2ccccc2)cc1 | > 200 | 8.32 µM | –
5 | COc1ccc2c(c1OC)Oc1c(OC)ccc3c1C(C2)NCC3 (stereo unspecified) | > 170 | > 100 µM | –
6 | O=C(O)c1[nH]c2c(=O)[nH]c(=O)[nH]c2c1Br | – | – | inactive
7 | COC(=O)N/N=C(\c1nc2ccc(Cl)cc2[nH]c1=O)C(O)c1ccc([N+](=O)[O-])cc1 (stereo unspecified) | > 575 | 550 µM | –
8 | O=C(O)CN1C(=O)CN=C(c2ccccn2)c2cc(Cl)ccc21 | > 759 | > 759 µM | –
9 | COc1cc2c(c(OC)c1OC)C(=O)[C@@H](OC(=O)CCCCl)[C@H]2N | > 200 | > 200 µM | –
10 | COC(=O)/C=C/c1ccc(OP(=O)(O)O)c(OC)c1 | > 200 | > 200 µM | –
11 | CCCCCCCCCCCC(=O)OCC1OC(n2cc(F)c(=O)[nH]c2=O)C(NC(=O)OCc2ccccc2)C(O)C1O (stereo unspecified) | > 30.9 | > 30.9 µM | –
12 | CCSSc1ccccc1C(=O)NC(CC)CO (stereo unspecified) | > 200 | 5.01 µM | –
13 | CCOC1CN(C)C(=Nc2cccc3ccccc23)S1 (stereo unspecified) | 4.9 | 148 µM | –
14 | CC(C)(C)C(=O)OCOP(=O)(O)OCC1CCC(N2C=CC(N)NC2=O)O1 (stereo unspecified) | 0.0468 | 16.2 µM | –
15 | c1ccc2c(CCNC3=NCCO3)cccc2c1 | – | – | inactive
16 | CN(CCO)c1cnn(CCO)c(=O)c1Cl | > 200 | > 200 µM | –
17 | COC1/C=C\OC2(C)Oc3c(C)c(O)c4c(O)c(c(/C=N\OCCO)c(O)c4c3C2=O)NC(=O)/C(C)=C\C=C/C(C)C(O)C(C)C(O)C(C)C(OC(C)=O)C1C (stereo unspecified) | 16.2 | 126 µM | –
18 | CCC/C(Cl)=N/OC(=O)Nc1cccc(F)c1 | > 20 | 3.16 µM | –
19 | C1CSC(=[N+]2CC[N+](=C3SCCS3)CC2)S1 | – | – | inactive
20 | CCC1(CCCC=C(c2cc(Cl)c(OC)c(CO)c2)c2cc(Cl)c(OC)c(CO)c2)OCCO1 | > 200 | 11.7 µM | –
21 | CC(=O)Oc1ccc(-c2cc3ccccc3oc2=O)cc1OC(C)=O | > 200 | 8.32 µM | –
22 | COc1ccc([P+](Cc2ccccc2)(c2ccccc2)c2ccc3ccccc3c2)cc1 (stereo unspecified) | > 200 | 0.794 µM | –
23 | Cc1cc(=O)n2cn[nH]c2n1 | > 200 | > 200 µM | –

Row | Structure (SMILES) | EC50 [µM] | IC50 | outcome
24 | N#CC1Nc2ccccc2[C@@H](O)C1O (stereo partly specified) | > 1320 | 240 µM | –
25 | COc1cccc2c(SCC(=O)Nc3ccccc3-c3ccccc3NC(=O)CSc3c4ccccc4nc4c(OC)cccc34)c3ccccc3nc12 | – | – | inactive
26 | O=C1OC(C(O)CO)C(C(O)CO)OC1=O (stereo unspecified) | > 200 | > 200 µM | –
27 | O=C(/C=C/c1ccsc1)c1ccc(Cl)s1 | > 200 | – | –
28 | COc1cc(NC(C)=O)c2[nH]c3c(C)cc(NC(C)=O)c(C)c3c2c1 | – | – | inactive
29 | Cc1cc2occ(-c3ccc(Cl)cc3)c2c(=O)o1 | > 20 | > 20 µM | –
30 | COc1ccc(C(=O)C(c2ccc(OC)cc2)C2(O)C(=O)Nc3c2ccc(Cl)c3C)cc1 (stereo unspecified) | > 11.5 | > 11.5 µM | –
31 | Cc1cc2c(cc1C)N1Cc3c(ccc(C)c3C)N(C2)C1 (tested in a mixture with another compound) | – | – | inactive
32 | COC(=O)C1(Cc2ccc(C)cc2)Cc2c(C)cccc2C1=O (stereo unspecified) | > 200 | 8.91 µM | –
33 | COc1cc2c3c(c1)nc(C)n3C(=O)C(C)S2 (stereo unspecified) | > 200 | 50.1 µM | –
34 | Oc1cc2ccc3c(c2cc1O)CCc1cn[nH]c1-3 | > 10.7 | > 10.7 µM | –
35 | COc1cc(Br)c(C=Nc2cccc3ccc(OS(=O)(=O)c4cccc([N+](=O)[O-])c4)cc23)cc1OC | – | – | inactive
36 | O=c1[nH]c(C2CCCCC2)nc2ccc(Cl)cc12 | – | – | inactive
37 | C[s+]1c2ccccc2c2ccccc21 | > 22.9 | 18.6 µM | –
38 | Cc1cc(S(=O)(=O)Nc2n[nH]c(-c3ccccn3)n2)c(S)cc1Cl | > 200 | 4.17 µM | –
39 | O=S1[C@H](c2ccccc2)c2c(-c3ccccc3)sc(-c3ccccc3)c2[C@@H]1c1ccccc1 (stereo partly specified) | – | – | inactive
40 | O=C1C=C2C=CC3CC2(O1)C1CCCCN31 (stereo unspecified) | > 1150 | 8.91 µM and 5.37 µM | –
41 | COCn1c(C)c(C)c2c(=O)oc(=O)[nH]c21 | > 200 | > 200 µM | –
42 | C=CCOCn1ccc(NC(=O)c2ccccc2)nc1=O | > 200 | > 200 µM | –
43 | CC(C)N(C(=O)c1cccc(C(=O)N(C(C)C)C(C)C)c1)C(C)C | > 759 | 468 µM | –
44 | N#Cc1nc(COCCOCc2ccc(F)cc2)oc1N | > 200 | > 200 µM | –
45 | CCOC(=O)C(O)(NC(C)=O)C(F)(F)F (stereo unspecified) | > 200 | > 200 µM | –
46 | CCOC(=O)c1ccc(N=Cc2ccc(N(CCC#N)S(=O)(=O)c3ccccc3)cc2C)cc1 | > 75.9 | > 75.9 µM | –

Row | Structure (SMILES) | EC50 [µM] | IC50 | outcome
47 | O=C(Nc1ccc(C2=NCCN2)cc1)c1ccc(C(=O)Nc2ccc(C3=NCCN3)cc2)c(O)c1 | 55 | 91.2 µM | –
48 | O=C1c2cccc3cccc(c23)C(=O)N1O | > 100 | 7.41 µM | –
49 | O=c1nc2[nH]nc(-c3ccccc3)c2n[nH]1 | – | – | inactive
50 | CCOC(=O)C1=C(C)CC2C(=O)OC(=O)C2C1(C)C (stereo unspecified) | – | – | inactive
51 | CCOC(=O)C1C(c2ccc(OC)cc2)c2c([nH][nH]c2=O)CC1(C)O (stereo unspecified) | > 200 | > 200 µM | –
52 | CCN(CC)C(=O)c1cc(OC(C)C)ccc1-c1c(C)cc(OC(C)C)c(OC)c1OC | > 214 | > 214 µM | –
53 | O=C(O)CN(c1ccccc1)S(=O)(=O)c1ccc([N+](=O)[O-])cc1 | – | – | inactive
54 | C=CC(O)C#Cc1cnc(OC)nc1OC (stereo unspecified) | – | – | inactive
55 | Cc1ccc(-c2cn3c(nc4ccccc43)c(C)n2)cc1 | > 200 | 66.1 µM | –
56 | O=C1CC(=O)N(CCc2ccccc2)S(=O)(=O)N1CCc1ccccc1 | > 200 | 35.5 µM | –
57 | O=C1CC2(Cl)CN3c4ccccc4C(=O)CC3(Cl)CN2c2ccccc21 (stereo unspecified) | > 57.5 | > 57.5 µM | –
58 | OCc1ccc2[n+](c1)CCc1c-2[nH]c2ccccc12 | > 77.6 | > 77.6 µM | –
59 | NC1=C(c2nc(-c3ccccc3)cs2)C(c2ccc(Br)cc2)c2c(c3ccccc3oc2=O)O1 (stereo unspecified) | > 200 | > 200 µM | –
60 | Nc1nc(N)nc(-c2cnc3ccccc3c2)n1 | > 200 | > 200 µM | –
61 | COc1cc(Nc2ccc3c(c2)CCC3)nc(OC)n1 | > 200 | 31.6 µM | –
62 | Cc1cc(O)c(C=O)c2c1C(=O)Oc1c(C)c(O)c(C(=O)O)c(C)c1O2 | > 200 | 186 µM | –
63 | CC1CC(C)(C)N/C(=C/C(=O)N2Cc3cc4ccccc4nc3C2)O1 (stereo unspecified) | > 200 | > 200 µM | –
64 | O=C1OC(=O)C(=C\c2ccc3c(c2)OCO3)/C1=C/c1ccc2c(c1)OCO2 | – | – | inactive
65 | O=P1(c2ccccc2)Nc2ccccc2N1c1ccccc1 (stereo unspecified) | > 200 | 38 µM | –
66 | CC(C#N)(CCC(=O)O)N=NC(C)(C#N)CCC(=O)O (stereo unspecified) | > 891 | > 891 µM | –
67 | CCCCCCCCC(=O)NCCCNCCCNC(=O)CCCCCCCC | > 100 | 10 µM | –
68 | c1ccc([P+](CCCCCCCC[P+](c2ccccc2)(c2ccccc2)c2ccccc2)(c2ccccc2)c2ccccc2)cc1 | > 100 | 1.23 µM | –
69 | COc1ccc(-n2c(C)nc3ccc(NC4OCC(O)C(O)C4O)cc3c2=O)cc1 (stereo unspecified) | > 200 | 69.2 µM and 45.7 µM | –

Row | Structure (SMILES) | EC50 [µM] | IC50 | outcome
70 | CN(/N=C/c1ccnc2ccccc12)c1ccc([N+](=O)[O-])cc1[N+](=O)[O-] | – | – | inactive
71 | Cc1cccc(O)c(=O)c1 | – | – | inactive
72 | CNc1c(Cl)cccc1S(=O)(=O)c1ccccc1[N+](=O)[O-] | 3.31 | > 200 µM | –
73 | O=c1cc2oc3cc(O)c(O)cc3c(-c3ccccc3O)c-2cc1O | > 200 | 115 µM | –
74 | Cc1c(O)c(OC2OC(CO)C(O)C(O)C2O)cc2c1CC[C@@H]1C2(C)C(=O)C[C@]2(C)[C@@H]([C@@](C)(O)C(=O)CCC(C)(C)O)[C@H](O)C[C@@]12C (stereo partly specified) | > 200 | > 200 µM | –
75 | CCOC(=O)/C(C#N)=C/c1ccccc1F | > 309 | > 309 µM | –
76 | COCCCCCCCCCCCC(=O)O | > 200 | > 200 µM | –
77 | CC(C)OCN1COCN=C1NC#N | > 447 | > 447 µM | –
78 | O=c1c2c(nc3n1CCC3)sc1c(O)c(Br)ccc12 | > 200 | 11 µM | –
79 | CC(C)C(=O)/C=C/c1ccc(Br)cc1 | – | – | inactive
80 | O=S1CSCS1 (stereo unspecified) | > 200 | > 200 µM | –
81 | Cc1ccc(C2(c3ccc(C)cc3)SC(=C(C#N)C#N)c3ccccc32)cc1 | > 200 | > 200 µM | –
82 | COc1cc(/C=C2/CCCc3ccccc3C2=O)cc(OC)c1OC | > 200 | 11.7 µM | –
83 | O=[N+]([O-])c1cccc[c]1[Sb](=[O])([OH])[c]1ccccc1[N+](=O)[O-] | > 200 | 25.1 µM | –
84 | O=C(O)c1cc2ccccc2c(=O)s1 | > 331 | > 331 µM | –
85 | O=C1c2ccc3cc(CCl)cc(O)c3c2C(=O)c2cccc(O)c21 | > 200 | 5.25 µM | –
86 | NC(Cc1ccc(S(=O)(=O)O)cc1)C(=O)NC(CCCCNC(=O)NCCCCC(NC(=O)C(N)Cc1ccc(S(=O)(=O)O)cc1)C(=O)NC(Cc1ccc(S(=O)(=O)O)cc1)C(=O)O)C(=O)NC(Cc1ccc(S(=O)(=O)O)cc1)C(=O)O (stereo unspecified) | > 100 | > 100 µM | –
87 | CN1CCCOC(c2ccc([N+](=O)[O-])cc2)O1 (stereo unspecified) | > 200 | > 200 µM | –
88 | Cc1ccc(S(=O)(=O)SS(=O)(=O)c2ccc(C)cc2)cc1 | 13.8 | 52.5 µM | –
89 | CC(C)(O)CCC(O)[C@](C)(O)C1CCC2(O)C3=CC(=O)[C@@H]4C[C@@H](O)[C@@H](O)C[C@]4(C)C3CC[C@]12C (stereo partly specified) | – | – | inactive
90 | Cc1ccc(NC(=O)CC2C(=O)Nc3ccccc3S2(=O)=O)c(C)c1 (stereo unspecified) | > 4.07 | > 4.07 µM | –
